Patent publication US20090280172A1, “GALENIC FORMULATIONS OF ORGANIC COMPOUNDS” (priority 2006, published 2009)

Test: Bioavailability of transmucosal dosage forms of aliskiren compared with oral formulations
Type: in vivo
Conditions: transmucosal route vs oral formulation e.g. as employed in WO2005/089729

COCCCOc1cc(C[C@@H](C[C@H](N)[C@@H](O)C[C@H](C(=O)NCC(C)(C)C(N)=O)C(C)C)C(C)C)ccc1OC [aliskiren, 2(S),4(S),5(S),7(S)-N-(3-amino-2,2-dimethyl-3-oxopropyl)-2,7-di(1-methylethyl)-4-hydroxy-5-amino-8-[4-methoxy-3-(3-methoxy-propoxy)phenyl]-octanamide]
increase of bioavailability over the bioavailability of an oral formulation: at least three times
